Assays:
[1] = biological target: DHODH (Homo sapiens (Human), UniProt Q02127); assay: DHODH activity assay (coupled enzyme assay, DCIP reduction, absorbance at 610 nm); format: biochemical; conditions: for inhibition at 10 µM: compound at 10 uM, read-out: inh @ 10 uM hDHODH (%)
[2] = tested on: Jurkat cells; assay: Measurement of cell proliferation (Jurkat cell), XTT assay; format: cell-based; conditions: Homo sapiens, Jurkat; for inhibition at 1 µM: compound at 1 uM, read-out: % inh Jurkat_cells @ 1 uM (%); for EC50: 72 h, XTT cell viability
Procedure, shortened: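 Jurkat T cells, 100,000 per well in RPMI with 10% FBS, exposed 72 h at 37 °C to serial compound dilutions (typically from 10 μM, half-log steps, triplicate) at 0.25–0.5% DMSO. Viability by XTT/PMS, A465 after 2 h, media background subtracted, untreated cells as 100%; EC50 from curve fit.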

DHODH, sequence (Q02127 whole entry): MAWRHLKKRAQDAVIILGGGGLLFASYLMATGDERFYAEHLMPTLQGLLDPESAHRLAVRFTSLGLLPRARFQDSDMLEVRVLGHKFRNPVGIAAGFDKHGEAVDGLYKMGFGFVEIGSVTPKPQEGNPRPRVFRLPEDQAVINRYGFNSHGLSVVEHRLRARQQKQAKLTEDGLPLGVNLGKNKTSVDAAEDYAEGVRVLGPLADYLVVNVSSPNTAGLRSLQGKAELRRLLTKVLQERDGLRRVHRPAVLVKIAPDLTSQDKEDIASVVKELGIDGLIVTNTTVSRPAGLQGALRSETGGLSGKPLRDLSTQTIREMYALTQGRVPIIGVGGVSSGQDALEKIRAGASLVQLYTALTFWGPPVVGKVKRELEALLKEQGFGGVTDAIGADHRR

Row | Compound | IC50 [1] [µM] | inhibition at 10 µM [1] [%] | inhibition at 1 µM [2] [%] | EC50 [2] [µM]
1 | Cc1cc(C(=O)O)c2nc(-c3ccc(-c4ccc(Oc5ccccc5C(=O)O)cc4)cc3)[nH]c2c1 [I137] | 2.24 | 65.1 | 31 | –
2 | O=C(O)c1cccn2cc(-c3ccc(-c4ccccc4)cc3)nc12 [I138] | 3.8 | 76.1 | 44.8 | –
3 | Cc1cc(C(=O)O)c2nc(-c3c(F)c(F)c(-c4ccsc4)c(F)c3F)[nH]c2c1 [I139] | 0.05 | 105 | 94.9 | –
4 | Cc1cc(C(=O)O)c2nc(-c3c(F)c(F)c(-c4ccccc4F)c(F)c3F)[nH]c2c1 [I140] | 0.0035 | 100 | 101 | 0.033
5 | Cc1cc(C(=O)O)c2nc(-c3c(F)c(F)c(-c4cccnc4)c(F)c3F)[nH]c2c1 [I141] | 0.032 | 92.5 | 86.9 | 2.6
6 | Cc1cc(C(=O)O)c2nc(-c3ccc(-c4ccc(Oc5ccccc5C=O)cc4)cc3)[nH]c2c1 [I142] | 1.05 | 84.7 | 54.5 | –
7 | Cc1cc(C(=O)O)c2nc(-c3ccc(-c4ccc(OCc5ccccc5)cc4)cc3)[nH]c2c1 [I143] | 1.23 | 87 | 42.2 | –
8 | O=C(O)c1cccc2[nH]c(-c3c(F)c(F)c(-c4ccsc4)c(F)c3F)nc12 [I144] | 0.441 | 89.8 | 68.2 | –
9 | Cc1cc(C(=O)O)c2nc(-c3c(F)c(F)c(-c4ccc(F)c(F)c4)c(F)c3F)[nH]c2c1 [I145] | 0.314 | 95.6 | 75.8 | –
10 | Cc1cc(C(=O)O)c2nc(-c3c(F)c(F)c(-c4cc(F)cc(F)c4)c(F)c3F)[nH]c2c1 [I146] | 0.021 | 96.4 | 89.9 | 0.013
11 | O=C(O)c1cccc2[nH]c(-c3c(F)c(F)c(-c4cccc(OC(F)(F)F)c4)c(F)c3F)nc12 [I148] | 0.218 | 103 | 88.6 | –
12 | Cc1cc(C(=O)O)c2nc(-c3ccc(-c4cccs4)cc3)[nH]c2c1 [I149] | 1.68 | 88.4 | 47.5 | –
13 | Cc1cc(C(=O)O)c2nc(-c3ccc(-c4cccc(NC(=O)C5CCCN5)c4)cc3)[nH]c2c1 (centres unmarked) [I150] | – | 30.5 | 15.4 | –
14 | Cc1cc(C(=O)O)c2nc(-c3ccc(-c4ccc(OCCN5CCCC5)cc4)cc3)[nH]c2c1 [I151] | – | 67.9 | 16 | –
15 | Cc1cc(C(=O)O)c2nc(-c3ccc(-c4ccc(OCCCN5CCCC5)cc4)cc3)[nH]c2c1 [I152] | – | 47.2 | 23.8 | –
16 | Cc1cc(C(=O)O)c2[nH]c(-c3ccc(-c4cccc(OCCC5CCNCC5)c4)cc3)nc2c1 [I153] | – | 53.4 | 15.1 | –
17 | Cc1cc(C(=O)O)c2[nH]c(-c3ccc(-c4ccc(OCCN5CCCCC5)cc4)cc3)nc2c1 [I154] | – | 49.1 | 8.7 | –
18 | Cc1cc(C(=O)O)c2[nH]c(-c3ccc(-c4cccc(OC5CCNCC5)c4)cc3)nc2c1 [I155] | – | 48.5 | 14.2 | –
19 | Cc1cc(C(=O)OCCO)c2[nH]c(-c3c(F)c(F)c(-c4ccccc4)c(F)c3F)nc2c1 [I156] | – | 69.1 | 31.4 | –
20 | O=C(O)c1cccc2nc(-c3ccc(-c4ccc(OCCO)cc4)cc3)[nH]c12 [I157] | – | 51.8 | 15.5 | –
21 | Cc1cc(C(=O)NC2CCCC2)c2[nH]c(-c3c(F)c(F)c(-c4ccccc4)c(F)c3F)nc2c1 [I158] | – | 48.5 | 6.5 | –
22 | Cc1cc(-c2nnc(O)o2)c2nc(-c3c(F)c(F)c(-c4ccccc4)c(F)c3F)[nH]c2c1 [I159] | – | 32.3 | 13.4 | –
23 | Cc1cc(C(=O)O)c2[nH]c(-c3ccc(-c4ccc(CNC(C)C)cc4)cc3)nc2c1 [I160] | – | 57.4 | 19.6 | –
24 | Cc1cc(C(=O)O)c2[nH]c(-c3ccc(-c4ccc(CN(C)C)cc4)cc3)nc2c1 [I161] | – | 43.3 | 9.7 | –
25 | Cc1cc(C(=O)NC(C)C)c2[nH]c(-c3c(F)c(F)c(-c4ccccc4)c(F)c3F)nc2c1 [I162] | – | 71.3 | 28.5 | –
26 | Cc1cc(C(=O)NC2CC2)c2[nH]c(-c3c(F)c(F)c(-c4ccccc4)c(F)c3F)nc2c1 [I163] | – | 75.6 | 37.7 | –
27 | Cc1cc(C(=O)O)c2nc(-c3ccc(-c4ccc(CN5CCCC5)cc4)cc3)[nH]c2c1 [I164] | – | 59.3 | 12.1 | –
28 | Cc1cc(-c2nnc(O)o2)c2nc(-c3ccc(-c4ccccc4)cc3)[nH]c2c1 [I165] | – | 46 | 29.7 | –
